In BigSolDB 2.1:

O=C(O)c1ccc(C(=O)O)cc1
solubility (mole fraction) (in 2-ethylhexanol, 313.15 K): 0.000293 | solubility (mole fraction) (in 2-ethylhexanol, 318.15 K): 0.000335 | solubility (mole fraction) (in 2-ethylhexanol, 323.15 K): 0.000377 | solubility (mole fraction) (in 2-ethylhexanol, 328.15 K): 0.000429 | solubility (mole fraction) (in 2-ethylhexanol, 333.15 K): 0.000482 | solubility (mole fraction) (in 2-ethylhexanol, 338.15 K): 0.000559 | solubility (mole fraction) (in 2-ethylhexanol, 343.15 K): 0.000636 | solubility (mole fraction) (in 2-ethylhexanol, 348.15 K): 0.000724 | solubility (mole fraction) (in 2-ethylhexanol, 353.15 K): 0.000812 | solubility (mole fraction) (in 2-ethylhexanol, 358.15 K): 0.000915 | solubility (mole fraction) (in 2-ethylhexanol, 363.15 K): 0.00102 | solubility (mole fraction) (in DMAc, 313.15 K): 0.0155 | solubility (mole fraction) (in DMAc, 318.15 K): 0.0199 | solubility (mole fraction) (in DMAc, 323.15 K): 0.0243 | solubility (mole fraction) (in DMAc, 328.15 K): 0.0304 | solubility (mole fraction) (in DMAc, 333.15 K): 0.0365 | solubility (mole fraction) (in DMAc, 338.15 K): 0.0453 | solubility (mole fraction) (in DMAc, 343.15 K): 0.0541 | solubility (mole fraction) (in DMAc, 348.15 K): 0.065 | solubility (mole fraction) (in DMAc, 353.15 K): 0.076 | solubility (mole fraction) (in DMAc, 358.15 K): 0.0823 | solubility (mole fraction) (in DMAc, 363.15 K): 0.0886 | solubility (mole fraction) (in DMF, 313.15 K): 0.0325 | solubility (mole fraction) (in DMF, 318.15 K): 0.0337 | solubility (mole fraction) (in DMF, 323.15 K): 0.035 | solubility (mole fraction) (in DMF, 328.15 K): 0.0361 | solubility (mole fraction) (in DMF, 333.15 K): 0.0372 | solubility (mole fraction) (in DMF, 338.15 K): 0.0383 | solubility (mole fraction) (in DMF, 343.15 K): 0.0394 | solubility (mole fraction) (in DMF, 348.15 K): 0.0412 | solubility (mole fraction) (in DMF, 353.15 K): 0.0429 | solubility (mole fraction) (in DMF, 358.15 K): 0.0442 | solubility (mole fraction) (in DMF, 363.15 K): 0.0455 | solubility (mole fraction) (in DMSO, 313.15 K): 0.0964 | solubility (mole fraction) (in DMSO, 318.15 K): 0.0989 | solubility (mole fraction) (in DMSO, 323.15 K): 0.102 | solubility (mole fraction) (in DMSO, 328.15 K): 0.104 | solubility (mole fraction) (in DMSO, 333.15 K): 0.107 | solubility (mole fraction) (in DMSO, 338.15 K): 0.108 | solubility (mole fraction) (in DMSO, 343.15 K): 0.11 | solubility (mole fraction) (in DMSO, 348.15 K): 0.113 | solubility (mole fraction) (in DMSO, 353.15 K): 0.116 | solubility (mole fraction) (in DMSO, 358.15 K): 0.118 | solubility (mole fraction) (in DMSO, 363.15 K): 0.121 | solubility (mole fraction) (in NMP, 313.15 K): 0.0558 | solubility (mole fraction) (in NMP, 318.15 K): 0.0646 | solubility (mole fraction) (in NMP, 323.15 K): 0.0736 | solubility (mole fraction) (in NMP, 328.15 K): 0.0838 | solubility (mole fraction) (in NMP, 333.15 K): 0.094 | solubility (mole fraction) (in NMP, 338.15 K): 0.0952 | solubility (mole fraction) (in NMP, 343.15 K): 0.0963 | solubility (mole fraction) (in NMP, 348.15 K): 0.0974 | solubility (mole fraction) (in NMP, 353.15 K): 0.0985 | solubility (mole fraction) (in NMP, 358.15 K): 0.0999 | solubility (mole fraction) (in NMP, 363.15 K): 0.101 | solubility (mole fraction) (in pyridine, 313.15 K): 0.0767 | solubility (mole fraction) (in pyridine, 318.15 K): 0.0767 | solubility (mole fraction) (in pyridine, 323.15 K): 0.0766 | solubility (mole fraction) (in pyridine, 328.15 K): 0.0768 | solubility (mole fraction) (in pyridine, 333.15 K): 0.0769 | solubility (mole fraction) (in pyridine, 338.15 K): 0.077 | solubility (mole fraction) (in pyridine, 343.15 K): 0.077 | solubility (mole fraction) (in pyridine, 348.15 K): 0.0774 | solubility (mole fraction) (in pyridine, 353.15 K): 0.0778 | solubility (mole fraction) (in pyridine, 358.15 K): 0.0783 | solubility (mole fraction) (in pyridine, 363.15 K): 0.0787
